# The source made the active and inactive calls. The calls are words filed in the database; no cut-off is given here.
# Target: T1, Sodium- and chloride-dependent betaine transporter (Homo sapiens, UniProt P48065)
# T1 sequence (P48065 whole entry): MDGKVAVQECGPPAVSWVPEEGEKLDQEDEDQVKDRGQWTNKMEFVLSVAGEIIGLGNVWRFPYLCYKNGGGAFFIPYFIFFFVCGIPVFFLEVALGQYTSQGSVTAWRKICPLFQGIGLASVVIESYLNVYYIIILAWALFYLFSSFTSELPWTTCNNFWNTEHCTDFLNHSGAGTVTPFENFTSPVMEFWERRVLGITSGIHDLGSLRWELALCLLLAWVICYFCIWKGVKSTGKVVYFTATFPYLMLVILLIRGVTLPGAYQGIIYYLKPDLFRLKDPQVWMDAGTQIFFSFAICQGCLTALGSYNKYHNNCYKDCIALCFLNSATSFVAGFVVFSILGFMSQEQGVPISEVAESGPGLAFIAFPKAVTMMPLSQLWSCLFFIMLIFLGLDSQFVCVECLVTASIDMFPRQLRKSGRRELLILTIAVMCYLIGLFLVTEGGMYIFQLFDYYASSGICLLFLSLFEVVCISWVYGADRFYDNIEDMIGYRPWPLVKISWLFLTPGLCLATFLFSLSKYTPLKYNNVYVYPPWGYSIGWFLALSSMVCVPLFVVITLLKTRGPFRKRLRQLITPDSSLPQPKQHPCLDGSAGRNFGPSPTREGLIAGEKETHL
# Assay: Inhibition of human BGT1 expressed in Flp-In CHO cells assessed as reduction in [3H]GABA uptake incubated for 3 mins by liquid scintillation counting method
# Assay type: cell-based
# Details: read-out: IC50
row,Compound,IC50 [µM]
1,C[C@@H](C(=O)O)[C@H]1CSC(N)=N1 (relative stereo),> 100
2,CC(C(=O)O)C1CSC(N)=N1 (stereo in doubt; l-10a),> 100
3,NC1=NC(CC(=O)O)CN1 (configuration not stated),3
4,C[C@H]1SC(N)=N[C@@H]1CC(=O)O (relative stereo),> 100
5,O=C(O)C[C@@H]1CCNC1,5
6,C[C@@H]1SC(N)=N[C@@H]1CC(=O)O (relative stereo),> 100
7,O=C(O)C[C@H]1CCNC1,9.9
8,O=C(O)CC1CNC=N1 (configuration not stated),7.3
9,NC1=NC(CC(=O)O)CS1 (configuration not stated),47.4
10,C[C@@H](C(=O)O)[C@@H]1CSC(N)=N1 (relative stereo),> 100
11,CC(C(=O)O)C1CSC(N)=N1 (stereo in doubt; l-10b),> 100

# Same assay, conditions: read-out: pIC50 (converted)
row,Compound,IC50 [µM]
1,O=C(O)C[C@@H]1CCNC1,3.98
2,O=C(O)C[C@H]1CCNC1,7.94

# System: not listed separately
# Assay: Ionization constant, pKa2 of the compound at 1 mM by potentiometric titration assay
# Assay type: physicochemical
# Details: not given
row,Compound,pKa at 1000 µM
1,NC1=NC(CC(=O)O)CN1 (configuration not stated),10.1
2,O=C(O)CC1CNC=N1 (configuration not stated),9.63
3,NC1=NC(CC(=O)O)CS1 (configuration not stated),8.62

# Target: Gamma-aminobutyric acid receptor subunit alpha-4/beta-2/gamma-2 (Homo sapiens, UniProt P18507+P47870+P48169)
# Sequence (P48169 whole entry, one chain of several): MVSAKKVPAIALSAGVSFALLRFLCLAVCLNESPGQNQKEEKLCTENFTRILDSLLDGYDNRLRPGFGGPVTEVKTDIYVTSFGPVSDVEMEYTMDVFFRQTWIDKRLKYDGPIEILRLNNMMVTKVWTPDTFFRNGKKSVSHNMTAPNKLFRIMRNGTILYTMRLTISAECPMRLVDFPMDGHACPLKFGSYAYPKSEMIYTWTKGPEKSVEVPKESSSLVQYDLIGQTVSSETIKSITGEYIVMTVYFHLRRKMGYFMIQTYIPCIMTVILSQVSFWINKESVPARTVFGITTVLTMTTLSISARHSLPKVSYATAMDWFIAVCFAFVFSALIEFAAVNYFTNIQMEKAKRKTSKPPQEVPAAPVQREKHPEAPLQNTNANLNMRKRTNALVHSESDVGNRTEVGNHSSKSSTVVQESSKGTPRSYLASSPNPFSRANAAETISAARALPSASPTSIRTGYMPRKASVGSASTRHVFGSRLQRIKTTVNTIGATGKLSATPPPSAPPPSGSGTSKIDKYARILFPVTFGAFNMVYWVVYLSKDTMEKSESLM
# Assay: Agonist activity at recombinant human GABA-A alpha4beta2gamma2S receptor transiently expressed in human tsA201 cells incubated for 30 mins and measured up to 90 secs by FMP dye based FLIPR membrane potential blue assay
# Assay type: cell-based
# Details: read-out: EC50
row,Compound,EC50 [µM]
1,CC(C(=O)O)C1CSC(N)=N1 (stereo in doubt; l-10a),26
2,NC1=NC(CC(=O)O)CN1 (configuration not stated),14
3,O=C(O)C[C@H]1CCNC1,8.1
4,O=C(O)CC1CNC=N1 (configuration not stated),7.9
5,NC1=NC(CC(=O)O)CS1 (configuration not stated),1.3

# Target: GABA-A receptor; alpha-1/beta-2/gamma-2 (Homo sapiens) (UniProt P14867+P47870+P18507)
# Assay: (§1) Agonist activity at recombinant human GABA-A alpha1beta2gamma2S receptor transiently expressed in human tsA201 cells incubated for 30 mins and measured up to 90 secs by FMP dye based FLIPR membrane potential blue assay
# Assay type: cell-based
# Details: not given
row,Compound,pEC50
1,C[C@H]1SC(N)=N[C@@H]1CC(=O)O (relative stereo),inactive
2,O=C(O)C[C@@H]1CCNC1,inactive
3,C[C@@H]1SC(N)=N[C@@H]1CC(=O)O (relative stereo),inactive

# Target: T2, GABA-A receptor; alpha-1/beta-2/gamma-2 (Homo sapiens, UniProt P14867+P47870+P18507)
# T2 sequence (P14867 whole entry): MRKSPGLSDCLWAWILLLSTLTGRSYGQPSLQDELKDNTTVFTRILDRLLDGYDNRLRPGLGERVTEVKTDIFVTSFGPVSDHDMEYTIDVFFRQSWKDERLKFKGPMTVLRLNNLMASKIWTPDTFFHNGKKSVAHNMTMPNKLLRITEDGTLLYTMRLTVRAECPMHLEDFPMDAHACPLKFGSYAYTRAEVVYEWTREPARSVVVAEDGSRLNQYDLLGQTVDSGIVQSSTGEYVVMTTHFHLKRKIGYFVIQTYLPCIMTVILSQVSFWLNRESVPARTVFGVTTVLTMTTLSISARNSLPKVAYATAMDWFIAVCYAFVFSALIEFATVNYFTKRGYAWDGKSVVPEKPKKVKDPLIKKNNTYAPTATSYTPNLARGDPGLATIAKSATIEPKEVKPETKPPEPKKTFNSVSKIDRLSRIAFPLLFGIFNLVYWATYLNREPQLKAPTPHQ
# T2 sequence (P47870 whole entry): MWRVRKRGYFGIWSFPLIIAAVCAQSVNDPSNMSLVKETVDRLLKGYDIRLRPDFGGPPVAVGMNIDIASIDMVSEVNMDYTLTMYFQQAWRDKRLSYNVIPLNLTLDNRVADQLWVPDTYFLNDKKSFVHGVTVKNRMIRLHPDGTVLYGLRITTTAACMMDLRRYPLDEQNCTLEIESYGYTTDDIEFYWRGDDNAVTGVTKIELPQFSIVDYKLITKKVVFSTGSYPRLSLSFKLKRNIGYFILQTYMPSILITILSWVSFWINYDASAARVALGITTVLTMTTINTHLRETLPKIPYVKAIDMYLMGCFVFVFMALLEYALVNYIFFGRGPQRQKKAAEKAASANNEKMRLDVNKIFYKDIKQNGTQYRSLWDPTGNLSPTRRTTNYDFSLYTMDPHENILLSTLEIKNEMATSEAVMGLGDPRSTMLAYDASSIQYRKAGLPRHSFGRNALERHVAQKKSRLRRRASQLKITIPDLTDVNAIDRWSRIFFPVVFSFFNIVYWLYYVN
# T2 sequence (P18507 whole entry): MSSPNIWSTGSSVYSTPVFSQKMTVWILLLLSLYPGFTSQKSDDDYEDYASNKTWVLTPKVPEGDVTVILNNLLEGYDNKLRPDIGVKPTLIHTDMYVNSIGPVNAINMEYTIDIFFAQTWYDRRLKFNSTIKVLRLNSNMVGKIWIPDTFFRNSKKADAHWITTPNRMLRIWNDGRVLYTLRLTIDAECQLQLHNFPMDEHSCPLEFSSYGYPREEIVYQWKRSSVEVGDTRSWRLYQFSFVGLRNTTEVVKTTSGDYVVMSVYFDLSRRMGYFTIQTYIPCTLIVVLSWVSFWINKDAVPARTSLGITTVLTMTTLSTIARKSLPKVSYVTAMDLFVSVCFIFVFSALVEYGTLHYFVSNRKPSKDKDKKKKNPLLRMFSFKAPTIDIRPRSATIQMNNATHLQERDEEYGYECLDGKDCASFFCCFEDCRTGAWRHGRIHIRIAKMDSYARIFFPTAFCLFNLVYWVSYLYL
# Assay: as §1
# Assay type: cell-based
# Details: not given
row,Compound,EC50
1,C[C@H]1SC(N)=N[C@@H]1CC(=O)O (relative stereo),Not Active
2,O=C(O)C[C@@H]1CCNC1,Not Active
3,C[C@@H]1SC(N)=N[C@@H]1CC(=O)O (relative stereo),Not Active
4,CC(C(=O)O)C1CSC(N)=N1 (stereo in doubt; l-10b),Not Active

# Target: T3, Gamma-aminobutyric acid receptor subunit alpha-4/beta-2/gamma-2 (Homo sapiens, UniProt P47870+P18507+P48169)
# Assay: Agonist activity at recombinant human GABA-A alpha4beta2gamma2S receptor transiently expressed in human tsA201 cells at >= 300 uM incubated for 30 mins and measured up to 90 secs by FMP dye based FLIPR membrane potential blue assay
# Assay type: cell-based
# Details: not given
row,Compound,Activity
1,C[C@H]1SC(N)=N[C@@H]1CC(=O)O (relative stereo),Active
2,O=C(O)C[C@@H]1CCNC1,Active
3,C[C@@H]1SC(N)=N[C@@H]1CC(=O)O (relative stereo),Active

# Target: Gamma-aminobutyric acid receptor subunit alpha-5/beta-2/gamma-2 (Homo sapiens) (UniProt P47870+P18507+P31644)
# Assay: Agonist activity at recombinant human GABA-A alpha5beta2gamma2S receptor transiently expressed in human tsA201 cells assessed as GABA-induced maximum response incubated for 30 mins and measured up to 90 secs by FMP dye based FLIPR membrane potential blue assay relative to GABA
# Assay type: cell-based
# Details: not given
row,Compound,Rmax [%]
1,C[C@@H](C(=O)O)[C@H]1CSC(N)=N1 (relative stereo),94
2,NC1=NC(CC(=O)O)CN1 (configuration not stated),90
3,C[C@H]1SC(N)=N[C@@H]1CC(=O)O (relative stereo),90
4,O=C(O)C[C@@H]1CCNC1,86
5,C[C@@H]1SC(N)=N[C@@H]1CC(=O)O (relative stereo),92
6,O=C(O)C[C@H]1CCNC1,99
7,O=C(O)CC1CNC=N1 (configuration not stated),88
8,NC1=NC(CC(=O)O)CS1 (configuration not stated),98
9,C[C@@H](C(=O)O)[C@@H]1CSC(N)=N1 (relative stereo),81

# Target: GABA-A receptor; anion channel
# Assay: Displacement of [3H]muscimol from GABA(A) receptor in Sprague-Dawley rat cortical synaptic membranes by liquid scintillation counting
# Details: not given
Compound,Ki [nM],pKi
C[C@@H](C(=O)O)[C@H]1CSC(N)=N1 (relative stereo),1600,–
CC(C(=O)O)C1CSC(N)=N1 (stereo in doubt; l-10a),330,–
NC1=NC(CC(=O)O)CN1 (configuration not stated),450,6.37
C[C@H]1SC(N)=N[C@@H]1CC(=O)O (relative stereo),12000,4.96
O=C(O)C[C@@H]1CCNC1,5600,–
C[C@@H]1SC(N)=N[C@@H]1CC(=O)O (relative stereo),5500,–
O=C(O)C[C@H]1CCNC1,210,–
O=C(O)CC1CNC=N1 (configuration not stated),90,–
NC1=NC(CC(=O)O)CS1 (configuration not stated),110,–
C[C@@H](C(=O)O)[C@@H]1CSC(N)=N1 (relative stereo),290,–
CC(C(=O)O)C1CSC(N)=N1 (stereo in doubt; l-10b),1300,5.91

# Target: T4, Sodium- and chloride-dependent betaine transporter (Homo sapiens) (UniProt P48065)
# T4 sequence (whole entry): T1 sequence (P48065 whole entry)
# Assay: Inhibition of human BGT1 expressed in Flp-In CHO cells assessed as reduction in [3H]GABA uptake at 100 uM incubated for 3 mins by liquid scintillation counting method relative to control
# Assay type: cell-based
# Details: not given
row,Compound,inhibition [%]
1,C[C@@H](C(=O)O)[C@H]1CSC(N)=N1 (relative stereo),> 30
2,NC1=NC(CC(=O)O)CN1 (configuration not stated),> 30
3,C[C@H]1SC(N)=N[C@@H]1CC(=O)O (relative stereo),> 30
4,O=C(O)C[C@@H]1CCNC1,> 30
5,C[C@@H]1SC(N)=N[C@@H]1CC(=O)O (relative stereo),> 30
6,O=C(O)C[C@H]1CCNC1,> 30
7,O=C(O)CC1CNC=N1 (configuration not stated),> 30
8,NC1=NC(CC(=O)O)CS1 (configuration not stated),> 30
9,C[C@@H](C(=O)O)[C@@H]1CSC(N)=N1 (relative stereo),> 30

# Target: T3, Gamma-aminobutyric acid receptor subunit alpha-4/beta-2/gamma-2
# Assay: Agonist activity at recombinant human GABA-A alpha4beta2gamma2S receptor transiently expressed in human tsA201 cells assessed as GABA-induced maximum response incubated for 30 mins and measured up to 90 secs by FMP dye based FLIPR membrane potential blue assay relative to GABA
# Assay type: cell-based
# Details: not given
row,Compound,Rmax
1,C[C@@H](C(=O)O)[C@H]1CSC(N)=N1 (relative stereo),inactive
2,NC1=NC(CC(=O)O)CN1 (configuration not stated),81%
3,C[C@H]1SC(N)=N[C@@H]1CC(=O)O (relative stereo),inactive
4,O=C(O)C[C@@H]1CCNC1,inactive
5,C[C@@H]1SC(N)=N[C@@H]1CC(=O)O (relative stereo),inactive
6,O=C(O)C[C@H]1CCNC1,94%
7,O=C(O)CC1CNC=N1 (configuration not stated),74%
8,NC1=NC(CC(=O)O)CS1 (configuration not stated),93%
9,C[C@@H](C(=O)O)[C@@H]1CSC(N)=N1 (relative stereo),inactive
